In paper PMC8204404 (Structure(London, England:1993), 2021):
Non-standard residues stand in square brackets, D forms with d. Residues, ends and D or L forms follow the SMILES beside them. No end group written: not given here. *: point of attachment. 5FAM = O=C1OC2(c3ccc(O)cc3Oc3cc(O)ccc32)c2ccc(C(=O)*)cc21; pT = C[C@@H](OP(=O)(O)O)[C@H](N)C(=O)O; pS = N[C@@H](COP(=O)(O)O)C(=O)O

T1: CHK1-KD (CHK1 construct consisting of only the kinase domain, CHK1(1-290)) (Homo sapiens, UniProt O14757)
T1 sequence (O14757 1-290): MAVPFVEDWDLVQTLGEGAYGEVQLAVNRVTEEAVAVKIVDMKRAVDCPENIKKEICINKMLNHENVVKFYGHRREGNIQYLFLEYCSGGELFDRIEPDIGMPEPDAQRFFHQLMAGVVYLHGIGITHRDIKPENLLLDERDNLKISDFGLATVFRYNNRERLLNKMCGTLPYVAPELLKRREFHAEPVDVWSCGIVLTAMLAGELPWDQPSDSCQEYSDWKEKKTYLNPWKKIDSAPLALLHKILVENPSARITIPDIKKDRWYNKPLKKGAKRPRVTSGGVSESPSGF

T2: CHK1-KD (CHK1 construct consisting of only the kinase domain) (Homo sapiens, UniProt O14757)
T2 sequence (O14757 1-290): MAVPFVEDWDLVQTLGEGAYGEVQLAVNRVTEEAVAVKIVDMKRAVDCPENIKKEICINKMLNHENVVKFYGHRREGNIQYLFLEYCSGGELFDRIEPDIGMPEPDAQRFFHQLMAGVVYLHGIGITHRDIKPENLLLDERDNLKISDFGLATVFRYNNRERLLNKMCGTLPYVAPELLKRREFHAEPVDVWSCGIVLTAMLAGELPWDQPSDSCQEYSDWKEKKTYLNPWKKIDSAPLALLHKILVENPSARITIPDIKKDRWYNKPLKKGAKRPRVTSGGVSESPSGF

T3: CHK1 kinase domain (CHK1-KD), STREP-(3C)-CHK1(1–290)-HIS (human, UniProt O14757 1-290)
T3 sequence: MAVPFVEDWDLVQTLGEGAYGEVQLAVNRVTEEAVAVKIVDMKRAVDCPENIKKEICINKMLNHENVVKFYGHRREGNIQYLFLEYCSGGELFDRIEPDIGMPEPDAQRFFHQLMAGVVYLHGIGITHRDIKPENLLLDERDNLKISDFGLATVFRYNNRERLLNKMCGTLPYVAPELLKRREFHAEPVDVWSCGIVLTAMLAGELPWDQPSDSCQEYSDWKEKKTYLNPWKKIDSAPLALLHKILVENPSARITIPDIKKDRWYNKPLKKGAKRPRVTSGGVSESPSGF

B1: Flu-CLASPIN_pS945 peptide (peptide)
peptide: GGMEELLNLCSGKFTSQ
modifications: not fully specified

Tests used:
[1] = biological target: T1, CHK1-KD (CHK1 construct consisting of only the kinase domain, CHK1(1-290)); experiment: Fluorescence polarization binding of CLASPIN peptides to CHK1-KD; details: FP, phosphorylated peptide
[2] = biological target: T2, CHK1-KD (CHK1 construct consisting of only the kinase domain); assay type: binding
[3] = biological target: B1; experiment: fluorescence polarisation
[4] = biological target: T3, CHK1 kinase domain (CHK1-KD), …; experiment: fluorescence polarisation

| Molecule | affinity for CHK1-KD (in words) [1] | binding result [4] | other results |
| --- | --- | --- | --- |
| CSCC[C@H](NC(=O)CNC(=O)CNC(=O)c1ccc2c(c1)C(=O)OC21c2ccc(O)cc2Oc2cc(O)ccc21)C(=O)N[C@@H](CC(=O)O)C(=O)N[C@@H](CCC(=O)O)C(=O)N[C@@H](CC(C)C)C(=O)N[C@@H](CC(C)C)C(=O)N[C@@H](CC(=O)O)C(=O)N[C@@H](CC(C)C)C(=O)N[C@@H](CS)C(=O)N[C@H](C(=O)NCC(=O)N[C@@H](CCCCN)C(=O)N[C@@H](Cc1ccccc1)C(=O)N[C@H](C(=O)N[C@@H](CO)C(=O)N[C@@H](CCC(N)=O)C(=O)O)[C@@H](C)O)[C@@H](C)OP(=O)(O)O [pT916] (5FAM-GGMDELLDLC[pT]GKFTSQ-OH) | high nanomolar range | – | – |
| CSCC[C@H](NC(=O)CNC(=O)CNC(=O)c1ccc2c(c1)C(=O)OC21c2ccc(O)cc2Oc2cc(O)ccc21)C(=O)N[C@@H](CCC(=O)O)C(=O)N[C@@H](CCC(=O)O)C(=O)N[C@@H](CC(C)C)C(=O)N[C@@H](CC(C)C)C(=O)N[C@@H](CC(N)=O)C(=O)N[C@@H](CC(C)C)C(=O)N[C@@H](CS)C(=O)N[C@@H](COP(=O)(O)O)C(=O)NCC(=O)N[C@@H](CCCCN)C(=O)N[C@@H](Cc1ccccc1)C(=O)N[C@H](C(=O)N[C@@H](CO)C(=O)N[C@@H](CCC(N)=O)C(=O)O)[C@@H](C)O [pS945] (5FAM-GGMEELLNLC[pS]GKFTSQ-OH) | high nanomolar range | – | – |
| CSCC[C@H](NC(=O)CNC(=O)CNC(=O)c1ccc2c(c1)C(=O)OC21c2ccc(O)cc2Oc2cc(O)ccc21)C(=O)N[C@@H](CCC(=O)O)C(=O)N[C@@H](CCC(=O)O)C(=O)N[C@@H](C)C(=O)N[C@@H](CC(C)C)C(=O)N[C@@H](C)C(=O)N[C@@H](CC(C)C)C(=O)N[C@@H](CS)C(=O)N[C@@H](COP(=O)(O)O)C(=O)NCC(=O)N[C@@H](CO)C(=O)N[C@@H](Cc1ccccc1)C(=O)N1CCC[C@H]1C(=O)N[C@H](C(=O)N[C@@H](CC(=O)O)C(=O)O)[C@@H](C)O [pS982] (5FAM-GGMEEALALC[pS]GSFPTD-OH) | high nanomolar range | – | – |
| MEELLNLC[pS]GKFTSQ [CLASPIN pS945 peptide] | – | – | effect on affinity of CHK1-KD for CDC25C substrate peptide [2]: no significant difference |
| full-length CHK1, STREP-(3C)-CHK1-HIS, treated with λ-phosphatase (enzyme) MAVPFVEDWDLVQTLGEGAYGEVQLAVNRVTEEAVAVKIVDMKRAVDCPENIKKEICINKMLNHENVVKFYGHRREGNIQYLFLEYCSGGELFDRIEPDIGMPEPDAQRFFHQLMAGVVYLHGIGITHRDIKPENLLLDERDNLKISDFGLATVFRYNNRERLLNKMCGTLPYVAPELLKRREFHAEPVDVWSCGIVLTAMLAGELPWDQPSDSCQEYSDWKEKKTYLNPWKKIDSAPLALLHKILVENPSARITIPDIKKDRWYNKPLKKGAKRPRVTSGGVSESPSGFSKHIQSNLDFSPVNSASSEENVKYSSSQPEPRTGLSLWDTSPSYIDKLVQGISFSQPTCPDHMLLNSQLLGTPGSSQNPWQRLVKRMTRFFTKLDADKSYQCLKETCEKLGYQWKKSCMNQVTISTTDRRNNKLIFKVNLLEMDDKILVDFRLSKGDGLEFKRHFLKIKGKLIDIVSSQKIWLPAT | – | – | fold lower affinity than CHK1-KD [3]: 2 fold |
| B1 | – | binds | – |
| GGMEEALALCSGSFPTD (not fully specified; fluorescein on the N-terminus; phosphoserine at 982 (pS982)) [Flu-CLASPIN_pS982 peptide] | – | binds | – |
| GGMDELLDLCTGKFTSQ (not fully specified; fluorescein on the N-terminus; phosphothreonine at 916 (pT916)) [Flu-CLASPIN_pT916 peptide] | – | binds | – |
